Key:
mice = test: Acute toxicity in mice; type: in vivo; conditions: 1 g/kg (i.v.)
Excerpt: 7. Acute toxicity in mice of FR-900156 1 g/kg (i.v.): no toxicity

mouse L cell = test: Cell toxicity (mouse L cell); type: cell-based; conditions: 500 µg/ml

Structure (SMILES): C[C@H](NC(=O)[C@@H](C)O)C(=O)N[C@H](CCC(=O)N[C@@H](CCC[C@@H](N)C(=O)O)C(=O)NCC(=O)O)C(=O)O [FR-900156, D-Lactyl-L-alanyl-γ-D-glutamyl-(L)-mesodiaminopimelyl(L)-glycine]
- Acute toxicity in mice (mice): no toxicity
- Cell toxicity (mouse L cell) (mouse L cell): no toxic effect
